Columns and labels:
[1] = tested on: patients with metastatic castration-sensitive prostate cancer (mCSPC); assay: Phase 3 study (TITAN) of apalutamide plus ADT versus placebo plus ADT: efficacy; format: in vivo, human
Method: The data presented herein as associated with this study reflects the state of this study at the time of this filing. The study was conducted at 260 sites in 23 countries. Review boards at all participating institutions approved the study, which was conducted in accordance with current International Conference on Harmonization guidelines for Good Clinical Practice and according to Declaration of Helsinki principles. All patients provided written informed consent. An independent data-monitoring committee was commissioned by the sponsor to monitor safety and efficacy before unblinding and make study conduct recommendations. Data were transcribed by personnel at each site from source documents into sponsor-prepared electronic case report forms. Blinding of investigators, patients, study site personnel, and sponsor study team to randomization codes was maintained until study completion, independent data-monitoring committee recommendation, or individual patient medical need.
Patients were stratified by Gleason score at diagnosis (≤7 vs. >7), region (North America and European Union vs. all other countries), and prior treatment with docetaxel (yes vs. no). A Screening Phase of up to 28 days before randomization established study eligibility. Subjects will receive/received treatment in 28-day cycles during the Treatment Phase until disease progression or the occurrence of unacceptable treatment-related toxicity or the sponsor terminates the study. […] During the Follow-up Phase, data collection (every 4 months) will include survival, additional data on secondary endpoints, date and type of disease progression (radiographic, PSA, clinical or a combination) on the first subsequent therapy for prostate cancer, and subsequent therapy for prostate cancer. Data collection in follow-up will continue until the subject dies, withdraws consent, is lost to follow-up or the study is terminated by the sponsor. The Brief Pain Inventory Short Form (BPI SF), Brief Fatigue Inventory (BFI), and EQ-5D-5L patient-report outcome (PRO) measures will also continue in the Follow-up Phase up to 12 months after treatment discontinuation.
Eligible patients were required to have documented adenocarcinoma of the prostate and distant metastatic disease documented by ≥1 lesion on bone scan, with or without visceral or lymph node involvement. […] Patients were castration sensitive (i.e., patients who are not receiving ADT at the time of progression). Previous treatment for prostate cancer was limited to prior docetaxel (maximum six cycles, no evidence of progression during treatment or before randomization), ADT for ≤6 months for metastatic castration-sensitive prostate cancer or ≤3 years total duration for localized prostate cancer, one course of radiation or surgical therapy for symptoms associated with metastatic disease, and other localized treatments (e.g., radiation therapy, prostatectomy) completed ≥1 year before randomization. Patients who had received a gonadotropin-releasing hormone agonist ≤28 days before randomization were required to take a first-generation antiandrogen (i.e., biclutamide, flutamide, or nilutamide) for ≥14 days before randomization. Antiandrogen must have been discontinued before randomization. Patients with severe angina, myocardial infarction, congestive heart failure, arterial/venous thromboembolic events, history of or predisposition for seizure, or recent ventricular arrhythmias were excluded.

[2] = tested on: mouse xenograft models of prostate cancer; assay: Mouse xenograft models of prostate cancer; format: in vivo; conditions: decreased tumor cell proliferation and increased apoptosis
[3] = Effect of food on apalutamide pharmacokinetics (healthy subjects); format: in vivo, human
Method: Median time to reach tmax was delayed approximately 2 hours with food.

[4] = tested on: BCRP/OATP1B1; assay: Co-administration of ERLEADA with rosuvastatin (BCRP/OATP1B1 substrate); conditions: in vivo
[5] = Leuprolide PK sub-study in mCSPC subjects receiving leuprolide acetate; format: in vivo, human
From the text: Optional PK samples were/will be collected from at least 60 consenting subjects (in selected countries) who received or will receive leuprolide acetate as the GnRHa at the time of randomization. Samples were/will be collected on Day 1 of Cycles 1, 3, 4, 5, and 6 for analysis of leuprolide and testosterone concentrations.
Descriptive statistics of leuprolide PK data will be summarized by treatment groups (with apalutamide or placebo) and dose of leuprolide acetate. […] The percentage of subjects with testosterone levels <50 ng/dL will be summarized descriptively by treatment groups.

[6] = tested on: in vitro chromosome aberration assay; assay: In vitro chromosome aberration assay; format: cell-based
[7] = tested on: dogs; assay: Repeat-dose toxicity study in dogs (up to 39 weeks); format: in vivo, dog
[8] = tested on: male rats; assay: Fertility study in male rats; format: in vivo, rat
[9] = target: CYP1A2 (Homo sapiens, UniProt P05177); assay: In vitro effect on CYP; conditions: therapeutically relevant concentrations
Sequence of CYP1A2 (P05177 whole entry): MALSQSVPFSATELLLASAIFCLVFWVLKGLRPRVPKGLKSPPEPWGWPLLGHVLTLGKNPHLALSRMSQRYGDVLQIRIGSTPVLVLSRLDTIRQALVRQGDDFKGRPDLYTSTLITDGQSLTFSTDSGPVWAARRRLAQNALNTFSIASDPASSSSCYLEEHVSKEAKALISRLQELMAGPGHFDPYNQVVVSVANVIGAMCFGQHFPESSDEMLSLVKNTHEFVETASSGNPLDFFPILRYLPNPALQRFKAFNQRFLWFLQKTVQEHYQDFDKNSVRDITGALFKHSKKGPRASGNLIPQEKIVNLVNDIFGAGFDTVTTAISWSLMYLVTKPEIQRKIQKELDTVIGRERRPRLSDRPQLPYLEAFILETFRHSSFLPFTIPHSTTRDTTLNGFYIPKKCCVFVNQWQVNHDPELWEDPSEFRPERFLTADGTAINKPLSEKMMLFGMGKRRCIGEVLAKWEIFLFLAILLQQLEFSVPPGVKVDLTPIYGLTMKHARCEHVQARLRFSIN

[10] = target: CYP2D6 (Homo sapiens, UniProt P10635); assay: In vitro effect on CYP; conditions: therapeutically relevant concentrations
Sequence of CYP2D6 (P10635 whole entry): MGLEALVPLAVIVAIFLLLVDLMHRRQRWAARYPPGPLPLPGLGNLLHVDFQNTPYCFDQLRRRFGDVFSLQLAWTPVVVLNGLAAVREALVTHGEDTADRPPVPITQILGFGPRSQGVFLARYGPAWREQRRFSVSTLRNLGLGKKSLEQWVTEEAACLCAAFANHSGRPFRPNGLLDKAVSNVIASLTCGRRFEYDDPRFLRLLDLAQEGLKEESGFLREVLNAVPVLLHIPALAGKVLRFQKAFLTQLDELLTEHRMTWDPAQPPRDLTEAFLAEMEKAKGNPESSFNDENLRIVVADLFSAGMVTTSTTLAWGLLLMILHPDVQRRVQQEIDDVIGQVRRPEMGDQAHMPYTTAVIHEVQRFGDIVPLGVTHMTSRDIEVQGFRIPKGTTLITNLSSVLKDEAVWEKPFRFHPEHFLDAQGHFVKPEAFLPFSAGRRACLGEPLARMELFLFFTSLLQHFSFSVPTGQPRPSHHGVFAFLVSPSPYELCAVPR

[11] = target: CYP2C9 (Homo sapiens, UniProt P11712); assay: In vitro CYP inhibition
Sequence of CYP2C9 (P11712 whole entry): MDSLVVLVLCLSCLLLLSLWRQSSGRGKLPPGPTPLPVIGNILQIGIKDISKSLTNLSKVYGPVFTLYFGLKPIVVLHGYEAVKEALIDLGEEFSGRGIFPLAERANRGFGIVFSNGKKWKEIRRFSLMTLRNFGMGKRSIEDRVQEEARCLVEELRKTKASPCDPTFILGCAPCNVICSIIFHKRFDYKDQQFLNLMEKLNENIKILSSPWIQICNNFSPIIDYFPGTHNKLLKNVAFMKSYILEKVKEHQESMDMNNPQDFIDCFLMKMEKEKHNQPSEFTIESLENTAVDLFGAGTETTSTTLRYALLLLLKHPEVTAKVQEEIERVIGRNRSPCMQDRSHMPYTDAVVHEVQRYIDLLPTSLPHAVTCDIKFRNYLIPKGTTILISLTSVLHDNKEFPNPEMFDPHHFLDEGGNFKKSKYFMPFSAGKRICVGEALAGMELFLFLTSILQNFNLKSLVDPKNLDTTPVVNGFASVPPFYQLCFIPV

[12] = target: CYP3A4 (Homo sapiens, UniProt P08684); assay: In vitro CYP inhibition
Sequence of CYP3A4 (P08684 whole entry): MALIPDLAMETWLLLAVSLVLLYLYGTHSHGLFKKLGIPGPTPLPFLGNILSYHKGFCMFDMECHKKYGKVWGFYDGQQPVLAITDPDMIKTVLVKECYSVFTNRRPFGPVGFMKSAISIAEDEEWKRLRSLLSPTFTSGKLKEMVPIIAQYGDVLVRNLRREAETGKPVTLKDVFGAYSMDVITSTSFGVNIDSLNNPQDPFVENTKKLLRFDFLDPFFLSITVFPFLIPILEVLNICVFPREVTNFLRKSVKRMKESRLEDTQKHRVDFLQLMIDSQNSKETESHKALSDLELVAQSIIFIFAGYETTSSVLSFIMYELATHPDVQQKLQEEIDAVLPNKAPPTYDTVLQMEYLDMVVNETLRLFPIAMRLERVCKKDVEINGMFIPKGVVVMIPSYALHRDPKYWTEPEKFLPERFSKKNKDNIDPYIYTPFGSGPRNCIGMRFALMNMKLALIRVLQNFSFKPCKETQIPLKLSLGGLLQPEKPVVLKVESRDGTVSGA

[13] = target: organic cation transporter 2 (OCT2) (Homo sapiens, UniProt O15244); assay: In vitro transporter inhibition
Sequence of organic cation transporter 2 (OCT2) (O15244 whole entry): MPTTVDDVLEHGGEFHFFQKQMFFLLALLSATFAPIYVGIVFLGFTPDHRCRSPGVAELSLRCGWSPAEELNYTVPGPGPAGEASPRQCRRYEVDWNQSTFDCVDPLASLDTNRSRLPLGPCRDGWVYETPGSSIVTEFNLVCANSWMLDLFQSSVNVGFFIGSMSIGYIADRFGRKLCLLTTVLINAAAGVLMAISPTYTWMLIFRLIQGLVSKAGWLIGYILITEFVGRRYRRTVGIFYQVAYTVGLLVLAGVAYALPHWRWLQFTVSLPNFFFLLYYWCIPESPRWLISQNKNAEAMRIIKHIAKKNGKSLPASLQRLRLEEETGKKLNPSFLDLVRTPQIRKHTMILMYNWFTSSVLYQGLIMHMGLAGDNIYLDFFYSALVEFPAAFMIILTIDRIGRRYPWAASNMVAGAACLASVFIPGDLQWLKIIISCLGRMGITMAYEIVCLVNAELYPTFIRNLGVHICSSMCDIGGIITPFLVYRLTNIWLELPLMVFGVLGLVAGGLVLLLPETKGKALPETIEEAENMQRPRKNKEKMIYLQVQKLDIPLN

[14] = target: BCRP (Homo sapiens, UniProt Q9UNQ0); assay: In vitro transporter substrate study
Sequence of BCRP (Q9UNQ0 whole entry): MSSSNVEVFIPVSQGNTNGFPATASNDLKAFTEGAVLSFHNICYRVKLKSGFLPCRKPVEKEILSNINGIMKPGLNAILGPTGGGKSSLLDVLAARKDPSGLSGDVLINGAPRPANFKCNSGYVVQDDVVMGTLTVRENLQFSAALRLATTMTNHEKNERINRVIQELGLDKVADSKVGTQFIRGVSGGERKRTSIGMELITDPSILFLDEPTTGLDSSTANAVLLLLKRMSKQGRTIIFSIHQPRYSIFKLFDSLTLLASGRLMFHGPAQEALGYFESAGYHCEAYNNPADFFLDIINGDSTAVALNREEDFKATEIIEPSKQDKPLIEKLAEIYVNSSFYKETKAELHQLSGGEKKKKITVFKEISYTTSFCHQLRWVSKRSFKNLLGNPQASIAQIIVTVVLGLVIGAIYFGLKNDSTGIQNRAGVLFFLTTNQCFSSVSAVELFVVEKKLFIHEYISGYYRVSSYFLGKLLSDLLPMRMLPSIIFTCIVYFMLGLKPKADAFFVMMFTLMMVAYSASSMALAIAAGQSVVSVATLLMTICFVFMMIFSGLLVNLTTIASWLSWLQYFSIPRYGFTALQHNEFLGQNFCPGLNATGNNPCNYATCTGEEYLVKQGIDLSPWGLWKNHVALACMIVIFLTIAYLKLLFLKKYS

[15] = Clinical pharmacokinetics of apalutamide and N-desmethyl apalutamide

CNC(=O)c1ccc(N2C(=S)N(c3cnc(C#N)c(C(F)(F)F)c3)C(=O)C23CCC3)cc1F [Apalutamide, 4-[7-(6-cyano-5-trifluoromethylpyridin-3-yl)-8-oxo-6-thioxo-5,7-diazaspiro[3.4]oct-5-yl]-2-fluoro-N-methylbenzamide]
Treatment discontinuations as the result of progressive disease ([1]; 99 patients): 19%
Deaths at cutoff for the first interim analysis ([1]; 525 patients randomized): 83
Radiographic progression events ([1]; 525 patients randomized): 134
Median radiographic progression-free survival ([1]; final analysis for rPFS): not reached
Overall survival, 24-month event-free rate ([1]; in vivo): 82%
Patients in whom PSA reached undetectable levels (PSA<0.2 ng per ml) ([1]; in vivo): 68%
Radiographic progression-free survival, 24-month event-free rate ([1]; in vivo): 68%
Change in FACT-P from baseline (health-related quality of life) ([1]; mixed-effect repeated measures model): maintained health-related quality of life and no between-group difference
Patients who discontinued because of disease progression ([1]; n = 525): 99 (18.9) no. (%)
Reduction in risk of death ([1]; vs placebo + ADT): 33%
Reduction in risk of radiographic progression or death ([1]; vs placebo + ADT): 52%
Effect on tumors [2]: decreased tumor volume
Change in Cmax and AUC with a high-fat meal vs fasting [3]: no clinically relevant changes
Induction of BCRP and OATP1B1, clinically [4]: weak inducer
Effect on the steady-state exposure of leuprolide [5]: no apparent effect
Genotoxicity [6]: not genotoxic
Dose at which atrophy of prostate gland and seminal vesicles, aspermia/hypospermia, tubular degeneration and/or interstitial cell hyperplasia or hypertrophy were observed [7]: ≥ 2.5 mg/kg/day
Dose at which a reduced number of live fetuses due to increased pre- and/or post-implantation loss was observed ([8]; 4 weeks of administration): 150 mg/kg/day
Dose at which decreased sperm concentration and motility, abnormal sperm morphology, lower copulation and fertility rates, reduced secondary sex gland and epididymis weights were observed ([8]; 4 weeks of dosing): ≥ 25 mg/kg/day
Time after last administration at which effects on male rats were reversible ([8]; rat, in vivo): 8 weeks
Effect on CYP1A2 [9]: do not affect
Effect on CYP2D6 [10]: do not affect
CYP2C9 inhibition [11]: weak inhibitors
CYP3A4 inhibition [12]: weak inhibitors
Inhibition of OCT2 [13]: inhibit
Substrate for BCRP [14]: not
CL/F ([15]; after single dosing): 1.3 L/h
Pharmacokinetics in specific populations ([15]; age 18-94 years, race, mild to moderate renal impairment, mild to moderate hepatic impairment): No clinically significant differences
CL/F ([15]; at steady-state after once-daily dosing): 2.0 L/h
Mean apparent volume of distribution at steady-state ([15]; human, in vivo): approximately 276 L
Median time to achieve peak plasma concentration (tmax) ([15]; range: 1 to 5 hours): 2 h
Time to steady-state ([15]; recommended dosage (240 mg once daily)): 4 weeks
AUC at steady-state, mean ([15]; recommended dosage, SD 32 (apalutamide), 23 (N-desmethyl apalutamide)): 100 µg·h/mL
Dose dependence of Cmax and AUC ([15]; repeated once-daily dosing of 30 to 480 mg): increased proportionally
